Holding throughout (test): cell-based
For experiment [1], the target named is hNav1.7 (Homo sapiens, UniProt Q15858). In kind it is cell-based. To be noted: IonWorks Quattro, use-dependent block, hNav1.7; read-out: IWQ Use Nav1.7.
For experiment [2], the target named is hNav1.5 (Homo sapiens, UniProt Q14524). To be noted: IonWorks Quattro, use-dependent block, hNav1.5; read-out: IWQ Use Nav1.5. In general terms: The patch-clamp technique gives a direct electrical read-out from membranes.
Experiment [3] has as its target hNav1.3 (Homo sapiens, UniProt Q9NY46). The following applies: IonWorks Quattro, use-dependent block, hNav1.3; read-out: IWQ Use Nav1.3.

Molecules are shown by their SMILES. Positions of bridges follow the written chain, without caps; N, C: chain ends. Non-standard residues stand in square brackets, D forms with d. Residues, ends and D or L forms follow the SMILES beside them. Phe(4-NH2) = Nc1ccc(C[C@H](N)C(=O)O)cc1; Arg(Me2s) = CN=C(NC)NCCC[C@H](N)C(=O)O

The source of these data is patent publication US9340590B2 (priority 2011, dated 2016).

hNav1.3, sequence (Q9NY46 whole entry, looked up): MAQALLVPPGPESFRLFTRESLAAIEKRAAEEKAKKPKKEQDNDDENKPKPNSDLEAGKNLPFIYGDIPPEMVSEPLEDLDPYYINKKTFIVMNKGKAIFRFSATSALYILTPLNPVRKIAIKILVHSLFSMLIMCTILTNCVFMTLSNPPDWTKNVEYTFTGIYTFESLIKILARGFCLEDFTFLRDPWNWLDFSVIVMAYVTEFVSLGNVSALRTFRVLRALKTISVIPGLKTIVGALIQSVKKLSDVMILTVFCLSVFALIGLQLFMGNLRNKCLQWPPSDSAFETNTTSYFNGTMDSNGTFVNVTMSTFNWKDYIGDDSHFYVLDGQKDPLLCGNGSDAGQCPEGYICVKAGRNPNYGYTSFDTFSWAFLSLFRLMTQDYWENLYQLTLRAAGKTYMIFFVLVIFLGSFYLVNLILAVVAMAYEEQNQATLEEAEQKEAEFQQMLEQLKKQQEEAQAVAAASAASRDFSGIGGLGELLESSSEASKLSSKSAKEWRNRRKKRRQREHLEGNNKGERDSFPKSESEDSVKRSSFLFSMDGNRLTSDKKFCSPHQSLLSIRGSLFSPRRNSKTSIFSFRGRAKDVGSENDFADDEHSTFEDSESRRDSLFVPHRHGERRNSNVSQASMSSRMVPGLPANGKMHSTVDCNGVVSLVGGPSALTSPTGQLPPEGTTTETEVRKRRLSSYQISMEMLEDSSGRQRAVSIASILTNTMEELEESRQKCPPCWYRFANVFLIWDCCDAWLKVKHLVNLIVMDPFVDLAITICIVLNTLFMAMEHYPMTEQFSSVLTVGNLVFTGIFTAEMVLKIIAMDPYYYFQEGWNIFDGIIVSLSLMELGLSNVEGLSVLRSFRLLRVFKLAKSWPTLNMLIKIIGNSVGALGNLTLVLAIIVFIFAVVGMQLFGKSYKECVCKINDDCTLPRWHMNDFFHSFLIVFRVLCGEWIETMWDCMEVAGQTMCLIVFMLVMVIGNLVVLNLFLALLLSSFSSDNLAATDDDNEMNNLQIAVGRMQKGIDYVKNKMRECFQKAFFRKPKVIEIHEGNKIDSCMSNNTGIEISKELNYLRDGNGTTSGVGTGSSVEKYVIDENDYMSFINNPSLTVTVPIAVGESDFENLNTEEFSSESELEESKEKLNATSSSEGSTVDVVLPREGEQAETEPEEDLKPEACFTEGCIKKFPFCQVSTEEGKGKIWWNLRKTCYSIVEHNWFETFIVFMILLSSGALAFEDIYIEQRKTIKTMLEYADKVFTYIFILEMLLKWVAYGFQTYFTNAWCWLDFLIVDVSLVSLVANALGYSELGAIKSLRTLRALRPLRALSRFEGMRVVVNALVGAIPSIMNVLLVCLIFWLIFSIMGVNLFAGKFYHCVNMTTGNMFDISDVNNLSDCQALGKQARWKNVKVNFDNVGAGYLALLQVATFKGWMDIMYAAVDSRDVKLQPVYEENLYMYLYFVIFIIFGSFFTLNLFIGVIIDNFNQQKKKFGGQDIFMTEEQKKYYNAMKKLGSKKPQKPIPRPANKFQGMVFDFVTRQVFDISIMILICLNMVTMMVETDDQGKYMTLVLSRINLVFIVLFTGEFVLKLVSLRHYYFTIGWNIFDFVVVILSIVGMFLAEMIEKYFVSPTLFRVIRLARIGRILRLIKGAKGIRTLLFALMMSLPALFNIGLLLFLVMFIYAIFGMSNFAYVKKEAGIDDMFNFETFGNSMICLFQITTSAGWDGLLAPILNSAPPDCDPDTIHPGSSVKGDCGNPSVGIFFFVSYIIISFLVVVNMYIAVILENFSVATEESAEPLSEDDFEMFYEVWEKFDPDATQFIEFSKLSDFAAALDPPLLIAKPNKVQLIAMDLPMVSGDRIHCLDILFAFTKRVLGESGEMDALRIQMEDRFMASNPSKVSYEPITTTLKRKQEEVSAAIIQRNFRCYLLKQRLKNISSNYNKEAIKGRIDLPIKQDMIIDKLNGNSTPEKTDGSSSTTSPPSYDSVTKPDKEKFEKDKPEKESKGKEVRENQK
hNav1.7, sequence (Q15858 whole entry, looked up): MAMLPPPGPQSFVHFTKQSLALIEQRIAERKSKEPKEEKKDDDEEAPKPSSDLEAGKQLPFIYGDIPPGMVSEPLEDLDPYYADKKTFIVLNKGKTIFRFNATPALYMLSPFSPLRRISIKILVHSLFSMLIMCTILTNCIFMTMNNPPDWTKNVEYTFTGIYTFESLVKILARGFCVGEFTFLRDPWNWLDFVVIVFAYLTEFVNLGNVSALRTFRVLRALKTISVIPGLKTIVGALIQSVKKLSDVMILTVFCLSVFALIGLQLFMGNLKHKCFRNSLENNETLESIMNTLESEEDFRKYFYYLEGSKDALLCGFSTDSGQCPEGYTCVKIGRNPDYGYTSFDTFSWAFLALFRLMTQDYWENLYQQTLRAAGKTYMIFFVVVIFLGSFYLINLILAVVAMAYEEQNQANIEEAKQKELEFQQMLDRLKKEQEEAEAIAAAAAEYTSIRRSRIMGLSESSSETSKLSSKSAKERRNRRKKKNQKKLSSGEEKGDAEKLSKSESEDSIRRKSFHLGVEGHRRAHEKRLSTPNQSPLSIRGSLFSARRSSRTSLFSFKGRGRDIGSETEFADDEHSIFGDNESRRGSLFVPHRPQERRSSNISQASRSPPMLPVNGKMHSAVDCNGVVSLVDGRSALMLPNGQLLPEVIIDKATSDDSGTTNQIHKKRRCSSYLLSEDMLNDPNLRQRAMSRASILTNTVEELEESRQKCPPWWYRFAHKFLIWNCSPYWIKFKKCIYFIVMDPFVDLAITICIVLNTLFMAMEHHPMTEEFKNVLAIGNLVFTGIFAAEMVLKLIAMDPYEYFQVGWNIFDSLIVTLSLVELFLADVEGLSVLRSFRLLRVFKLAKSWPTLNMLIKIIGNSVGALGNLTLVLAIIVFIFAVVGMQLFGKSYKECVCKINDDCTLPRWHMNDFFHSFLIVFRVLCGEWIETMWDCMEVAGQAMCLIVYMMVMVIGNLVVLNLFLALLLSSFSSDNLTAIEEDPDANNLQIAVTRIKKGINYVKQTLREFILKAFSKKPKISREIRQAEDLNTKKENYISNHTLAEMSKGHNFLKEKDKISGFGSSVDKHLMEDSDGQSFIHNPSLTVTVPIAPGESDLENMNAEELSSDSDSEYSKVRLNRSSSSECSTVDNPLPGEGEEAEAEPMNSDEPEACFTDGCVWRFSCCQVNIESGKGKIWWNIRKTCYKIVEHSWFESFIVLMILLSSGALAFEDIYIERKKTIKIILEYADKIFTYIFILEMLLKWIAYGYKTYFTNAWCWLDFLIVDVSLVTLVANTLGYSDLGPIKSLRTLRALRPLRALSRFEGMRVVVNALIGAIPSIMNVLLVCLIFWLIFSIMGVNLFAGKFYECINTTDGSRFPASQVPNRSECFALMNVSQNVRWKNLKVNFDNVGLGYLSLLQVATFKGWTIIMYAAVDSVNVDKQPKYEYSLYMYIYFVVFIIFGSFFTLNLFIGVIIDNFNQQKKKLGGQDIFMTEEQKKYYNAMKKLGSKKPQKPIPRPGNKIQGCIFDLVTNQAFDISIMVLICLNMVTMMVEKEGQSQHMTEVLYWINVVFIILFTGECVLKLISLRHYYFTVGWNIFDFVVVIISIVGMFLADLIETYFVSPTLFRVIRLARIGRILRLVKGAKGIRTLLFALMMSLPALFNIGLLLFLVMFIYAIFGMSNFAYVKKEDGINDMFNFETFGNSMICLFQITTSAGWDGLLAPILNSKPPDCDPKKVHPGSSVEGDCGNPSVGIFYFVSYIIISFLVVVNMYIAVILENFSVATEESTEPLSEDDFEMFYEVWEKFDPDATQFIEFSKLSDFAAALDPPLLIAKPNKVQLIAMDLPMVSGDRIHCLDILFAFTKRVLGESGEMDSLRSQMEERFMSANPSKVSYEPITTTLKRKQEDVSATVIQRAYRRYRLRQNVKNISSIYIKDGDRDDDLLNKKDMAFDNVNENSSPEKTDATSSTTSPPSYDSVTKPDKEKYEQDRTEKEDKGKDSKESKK

With `CC[C@H](C)[C@@H]1NC(=O)[C@@H]2CSSC[C@@H]3NC(=O)[C@H](C(C)C)NC(=O)[C@H](CC(C)C)NC(=O)[C@H](CC(N)=O)NC(=O)[C@@H]4CCCN4C(=O)[C@H](CCCNC(=N)N)NC(=O)[C@H](CSSC[C@H](NC(=O)[C@@H](N)CC(=O)O)C(=O)N[C@@H](CC(C)C)C(=O)NCC(=O)N[C@@H](C)C(=O)N[C@@H](CCSC)C(=O)N[C@@H](CCCNC(=N)N)C(=O)N[C@@H](CCCCN)C(=O)N2)NC(=O)[C@H](CSSC[C@@H](C(=O)N[C@@H](CCCCN)C(=O)N[C@@H](Cc2ccc(O)cc2)C(=O)N[C@H](C(=O)N[C@@H](Cc2ccccc2)C(N)=O)C(C)C)NC(=O)[C@H](Cc2c[nH]c4ccccc24)NC(=O)[C@H](Cc2ccc(N)cc2)NC(=O)[C@H](Cc2c[nH]cn2)NC(=O)[C@H]([C@@H](C)O)NC(=O)[C@H](CCCNC(=N)N)NC(=O)[C@H](CO)NC3=O)NC(=O)[C@H](CCCCN)NC(=O)[C@H](CC(=O)O)NC(=O)[C@H](CC(N)=O)NC(=O)[C@H](CC(=O)O)NC(=O)[C@@H]2CCCN2C1=O` [compound 741] (H-DCLGAMRKCIPDNDKCCRPNLVCSRTH[Phe(4-NH2)]WCKYVF-NH2; disulfide 2-17, 9-23, 16-30), the IC50 was 1.1 µM in experiment [1], 24.4 µM in experiment [2] and 2.3 µM in experiment [3].
For `CC[C@H](C)[C@@H]1NC(=O)[C@@H]2CSSC[C@@H]3NC(=O)[C@H](C(C)C)NC(=O)[C@H](CC(C)C)NC(=O)[C@H](CC(N)=O)NC(=O)[C@@H]4CCCN4C(=O)[C@H](CCCNC(=N)N)NC(=O)[C@H](CSSC[C@H](NC(=O)[C@@H](N)CC(=O)O)C(=O)N[C@@H](CC(C)C)C(=O)NCC(=O)N[C@@H](C)C(=O)N[C@@H](CCSC)C(=O)N[C@@H](CCCNC(=N)N)C(=O)N[C@@H](CCCCN)C(=O)N2)NC(=O)[C@H](CSSC[C@@H](C(=O)N[C@@H](CCCCN)C(=O)N[C@@H](Cc2ccc(O)cc2)C(=O)N[C@H](C(=O)N[C@@H](Cc2ccccc2)C(N)=O)C(C)C)NC(=O)[C@H](Cc2c[nH]c4ccccc24)NC(=O)[C@H](CCCCNC(C)=O)NC(=O)[C@H](Cc2c[nH]cn2)NC(=O)[C@H]([C@@H](C)O)NC(=O)[C@H](CCCNC(=N)N)NC(=O)[C@H](CO)NC3=O)NC(=O)[C@H](CCCCN)NC(=O)[C@H](CC(=O)O)NC(=O)[C@H](CC(N)=O)NC(=O)[C@H](CC(=O)O)NC(=O)[C@@H]2CCCN2C1=O` [compound 742] (H-DCLGAMRKCIPDNDKCCRPNLVCSRTHK(Ac)WCKYVF-NH2; disulfide 2-17, 9-23, 16-30), the IC50 in experiment [1] was determined as 1.1 µM; in experiment [2], 22.7 µM; in experiment [3] it was 2.5 µM.
In the same order, the values of `CC[C@H](C)[C@@H]1NC(=O)[C@@H]2CSSC[C@@H]3NC(=O)[C@H](C(C)C)NC(=O)[C@H](CC(C)C)NC(=O)[C@H](CC(N)=O)NC(=O)[C@@H]4CCCN4C(=O)[C@H](CCCNC(=N)N)NC(=O)[C@H](CSSC[C@H](NC(=O)[C@@H](N)CC(=O)O)C(=O)N[C@@H](CC(C)C)C(=O)NCC(=O)N[C@@H](C)C(=O)N[C@@H](CCSC)C(=O)N[C@@H](CCCNC(=N)N)C(=O)N[C@@H](CCCCN)C(=O)N2)NC(=O)[C@H](CSSC[C@@H](C(=O)N[C@@H](CCCCN)C(=O)N[C@@H](Cc2ccc(O)cc2)C(=O)N[C@H](C(=O)N[C@@H](Cc2ccccc2)C(N)=O)C(C)C)NC(=O)[C@H](Cc2c[nH]c4ccccc24)NC(=O)[C@H](CCCNC(=NC)NC)NC(=O)[C@H](Cc2c[nH]cn2)NC(=O)[C@H]([C@@H](C)O)NC(=O)[C@H](CCCNC(=N)N)NC(=O)[C@H](CO)NC3=O)NC(=O)[C@H](CCCCN)NC(=O)[C@H](CC(=O)O)NC(=O)[C@H](CC(N)=O)NC(=O)[C@H](CC(=O)O)NC(=O)[C@@H]2CCCN2C1=O` [compound 743] (H-DCLGAMRKCIPDNDKCCRPNLVCSRTH[Arg(Me2s)]WCKYVF-NH2; disulfide 2-17, 9-23, 16-30) are 0.22 µM, 26.5 µM and 1.1 µM.
